pEC50: −log10 of the molar value.
Experiments:
HIV-1 = details: cited from earlier work; for pEC50: d4T phosphoramidates, prior art, read-out: 50% effective doses vs HIV-1
[1] = system: human colon cancer cell line (HT115); assay: MTT cytotoxicity assay, colon cancer cell line; assay type: cell-based; details: for EC50: Homo sapiens, HT115, read-out: EC50/μM Colon HT115, MTT assay, compounds added to cells over 1 to 3 days
Method: (§1) The compounds include those whose preparations are described above and compounds made by preparative methods corresponding to the methods described above.
(§2) Compounds were diluted over a range of concentrations and added to cells over 1 to 3 days. The cytotoxity was determined using a MTT assay at the end of each experiment.

[2] = system: human breast cancer cell line (MDA MB 231); assay: MTT cytotoxicity assay, breast cancer cell line; assay type: cell-based; details: for EC50: Homo sapiens, MDA-MB-231, read-out: EC50/μM Breast MDA MB231
Method: as §1, §2

[3] = system: human prostate cancer cell line (PC-3); assay: MTT cytotoxicity assay, prostate cancer cell line; assay type: cell-based; details: for EC50: Homo sapiens, read-out: EC50/μM Prostate PC-3
Method: as §1, §2

SMILES | pEC50 (HIV-1) | potency boost of (10) over (9) (HIV-1; equivalent phosphoramidates of d4T, McGuigan et al, AVCC, 1998) | EC50 [1] | EC50 [2] | EC50 [3] | times more potent than (7), colon cancer cell line HT115 ([1]; ratio of 50% growth inhibition concentrations versus methyl ester (7)) | fold more active than (7), breast cancer ([2]; ratio versus methyl ester (7)) | times more potent than (7), prostate cancer cell line PC-3 ([3]; ratio versus methyl ester (7))
COC(=O)C(C)NP(=O)(OCC1C=CC(n2cc(C)c(=O)[nH]c2=O)O1)Oc1ccccc1 (stereo not shown) [(9)] | 7.12 | – | – | – | – | – | – | –
Cc1cn(C2C=CC(COP(=O)(NC(C)C(=O)OCc3ccccc3)Oc3ccccc3)O2)c(=O)[nH]c1=O (stereo not shown) [(10)] | – | ~4 fold | – | – | – | – | – | –
COC(=O)C(C)NP(=O)(OCC1C=CC(n2cc(C)c(=O)[nH]c2=O)O1)Oc1ccc(C(F)(F)F)cc1 (stereo not shown) [(13)] | 8.00 | – | – | – | – | – | – | –
COC(=O)C1(NP(=O)(OC[C@H]2O[C@@H](n3cc(/C=C/Br)c(=O)[nH]c3=O)CC2O)Oc2ccccc2)CCCC1 (stereo partly drawn) [Example 16, (E)-5-(2-Bromovinyl)-2′-deoxyuridine-5′-[phenyl-(methoxy-α,α-cycloleucinyl)]-phosphate] | – | – | 77 µM | 79 µM | 16 µM | – | – | –
CC(C)(NP(=O)(OC[C@H]1O[C@@H](n2cc(/C=C/Br)c(=O)[nH]c2=O)CC1O)Oc1ccccc1)C(=O)OCc1ccccc1 (stereo partly drawn) [Example 14, (E)-5-(2-bromovinyl)-2′-deoxyuridine-5′-[phenyl-(benzoxy-α,α-dimethylglycinyl)]-phosphate] | – | – | 14.5 µM | 19 µM | 5.1 µM | – | – | –
COC(=O)[C@H](C)NP(=O)(OC[C@H]1O[C@@H](n2cc(/C=C/Br)c(=O)[nH]c2=O)CC1O)Oc1ccc(C(F)(F)F)cc1 (stereo partly drawn) [Example 15, (E)-5-(2-bromovinyl)-2′-deoxyuridine-5′-[para-(trifluoromethyl)-phenyl-(methoxy-L-alaninyl)]-phosphate] | – | – | 79.2 µM | 47 µM | 15 µM | – | – | –
CC(C)(NP(=O)(OC[C@H]1O[C@@H](n2ccc(N)nc2=O)C(F)(F)C1O)Oc1ccc(Cl)cc1)C(=O)OCc1ccccc1 (stereo partly drawn) [Example 41, Gemcitabine-[para-chlorophenyl-(benzoxy-α,α-dimethylglycinyl)]-phosphate] | – | – | 317 µM | 3.1 µM | 68.8 µM | – | – | –
CCOC(=O)C1(NP(=O)(OC[C@H]2O[C@@H](n3cc(/C=C/Br)c(=O)[nH]c3=O)CC2O)Oc2ccc(C(F)(F)F)cc2)CCCC1 (stereo partly drawn) [Example 29, (E)-5-(2-Bromovinyl)-2′-deoxyuridine-5′-[para-trifluorophenyl-(ethoxy-α,α-cycloleucinyl)]-phosphate] | – | – | 15.1 µM | 45.6 µM | 4.3 µM | – | – | –
CC(C)(NP(=O)(OCC1OC(n2cc(/C=C/Br)c(=O)[nH]c2=O)CC1O)Oc1ccc(C(F)(F)F)cc1)C(=O)OCc1ccccc1 (stereo not drawn) [Example 48, (E)-5-(2-bromovinyl)-2′-deoxyuridine-5′-[para-(trifluoromethyl)phenyl-(benzoxy-α,α-dimethylglycinyl)]-phosphate] | – | – | 7 µM | 1.3 µM | 0.61 µM | 35 fold | 60 fold | 254 fold
COC(=O)[C@H](C)NP(=O)(OC[C@H]1O[C@@H](n2cc(/C=C/Br)c(=O)[nH]c2=O)CC1O)Oc1ccc(F)cc1 (stereo partly drawn) [Example 5, (E)-5-(2-Bromovinyl)-2′-deoxyuridine-5′-[para-fluorophenyl-(methoxy-L-alaninyl)]-phosphate] | – | – | 17 µM | 159 µM | 58 µM | – | – | –
COC(=O)C(C)(C)NP(=O)(OC[C@H]1O[C@@H](n2cc(/C=C/Br)c(=O)[nH]c2=O)CC1O)Oc1ccccc1 (stereo partly drawn) [Example 26, (E)-5-(2-bromovinyl)2′-deoxyuridine-5′-[phenyl-(methoxy-α,α-dimethylglycinyl)]-phosphate] | – | – | 77.9 µM | 41.1 µM | 1.5 µM | – | – | –
CCOC(=O)C(C)(C)NP(=O)(OC[C@H]1O[C@@H](n2cc(/C=C/Br)c(=O)[nH]c2=O)CC1O)Oc1ccccc1 (stereo partly drawn) [Example 27, (E)-5-(2-bromovinyl)-2′-deoxyuridine-5′-[phenyl-(ethoxy-α,α-dimethylglycinyl)]-phosphate] | – | – | 39.7 µM | 218 µM | 76.1 µM | – | – | –
COC(=O)C1(NP(=O)(OC[C@H]2O[C@@H](n3cc(/C=C/Br)c(=O)[nH]c3=O)CC2O)Oc2ccc(F)cc2)CCCC1 (stereo partly drawn) [Example 22, (E)-5-(2-Bromovinyl)-2′-deoxyuridine-5′-[para-fluorophenyl-(methoxy-α,α-cycloleucinyl)]-phosphate] | – | – | 59.7 µM | 57 µM | 51 µM | – | – | –
COC(=O)[C@H](C)NP(=O)(OC[C@H]1O[C@@H](n2cc(/C=C/Br)c(=O)[nH]c2=O)CC1O)Oc1ccc([N+](=O)[O-])cc1 (stereo partly drawn) [Example 10, (E)-5-(2-Bromovinyl)-2 ′-deoxyuridine-5′-[para-nitrophenyl-(methoxy-L-alaninyl)]-phosphate] | – | – | 96.7 µM | 105 µM | 10.4 µM | – | – | –
O=C(OCc1ccccc1)C1(NP(=O)(OC[C@H]2O[C@@H](n3cc(/C=C/Br)c(=O)[nH]c3=O)CC2O)Oc2ccc(Cl)cc2)CCCC1 (stereo partly drawn) [Example 34, (E)-5-(2-Bromovinyl)-2′-deoxyuridine-5′-[para-chlorophenyl-(benzoxy-α,α-cycloleucinyl)]-phosphate] | – | – | 8.9 µM | 3.9 µM | 6.3 µM | – | – | –
COC(=O)C(C)(C)NP(=O)(OC[C@H]1O[C@@H](n2cc(/C=C/Br)c(=O)[nH]c2=O)CC1O)Oc1ccc([N+](=O)[O-])cc1 (stereo partly drawn) [Example 45, (E)-5-(2-bromovinyl)-2′-deoxyuridine-5′-[4-nitrophenyl-(methoxy-α,α-dimethylglycinyl)]-phosphate] | – | – | 24.7 µM | 9.4 µM | 223 µM | – | – | –
CCOC(=O)C1(NP(=O)(OC[C@H]2O[C@@H](n3cc(/C=C/Br)c(=O)[nH]c3=O)CC2O)Oc2ccc([N+](=O)[O-])cc2)CCCC1 (stereo partly drawn) [Example 20, (E)-5-(2-Bromovinyl)-2′-deoxyuridine-5′-[para-nitrophenyl-(ethoxy-α,α-cycloleucinyl)]-phosphate] | – | – | 57.3 µM | 13 µM | 15 µM | – | – | –
CC(C)(NP(=O)(OC[C@H]1O[C@@H](n2cc(/C=C/Br)c(=O)[nH]c2=O)CC1O)Oc1ccc(Cl)cc1)C(=O)OCc1ccccc1 (stereo partly drawn) [Example 44, (E)-5-(2-bromovinyl)-2′-deoxyuridine-5′-[4-chlorophenyl-(benzoxy-α,α-dimethylglycinyl)]-phosphate] | – | – | 4.5 µM | 2.3 µM | 9.12 µM | – | – | –
O=C(OCc1ccccc1)C1(NP(=O)(OC[C@H]2O[C@@H](n3cc(/C=C/Br)c(=O)[nH]c3=O)CC2O)Oc2ccc([N+](=O)[O-])cc2)CCCC1 (stereo partly drawn) [Example 21, (E)-5-(2-Bromovinyl)-2′-deoxyuridine-5′-[para-nitrophenyl-(benzoxy-α,α-cycloleucinyl)]-phosphate] | – | – | 17.2 µM | 8.4 µM | 2.2 µM | – | – | –
C[C@H](NP(=O)(OC[C@H]1O[C@@H](n2ccc(N)nc2=O)C(F)(F)C1O)Oc1ccc(Cl)cc1)C(=O)OCc1ccccc1 (stereo partly drawn) [Example 40, Gemcitabine-[para-chlorophenyl-(benzoxy-L-alaninyl)]-phosphate] | – | – | 16.1 µM | 9.2 µM | 15.4 µM | – | – | –
CC(C)C[C@H](NP(=O)(OC[C@H]1O[C@@H](n2cc(/C=C/Br)c(=O)[nH]c2=O)CC1O)Oc1ccccc1)C(=O)OCc1ccccc1 (stereo partly drawn) [Example 37, (E)-5-(2-Bromovinyl)-2′-deoxyuridine-5′-[phenyl-(benzoxy-L-leucinyl)]-phosphate] | – | – | 7 µM | 2.8 µM | 7.16 µM | – | – | –
COC(=O)[C@H](CC(C)C)NP(=O)(OC[C@H]1O[C@@H](n2cc(/C=C/Br)c(=O)[nH]c2=O)CC1O)Oc1ccccc1 (stereo partly drawn) [Example 35, (E)-5-(2-Bromovinyl)-2′-deoxyuridine-5′-[phenyl-(methoxy-L-leucinyl)]-phosphate] | – | – | 7.7 µM | 18.5 µM | 75.7 µM | – | – | –
COC(=O)C(C)(C)NP(=O)(OCC1C=CC(n2cc(C)c(=O)[nH]c2=O)O1)Oc1ccccc1 (stereo not shown) [(12)] | 6.54 | – | – | – | – | – | – | –
O=C(OCc1ccccc1)C1(NP(=O)(OC[C@H]2O[C@@H](n3cc(/C=C/Br)c(=O)[nH]c3=O)CC2O)Oc2ccccc2)CCCC1 (stereo partly drawn) [Example 18, (E)-5-(2-Bromovinyl)-2′-deoxyuridine-5′-[phenyl-(benzoxy-α, α-cycloleucinyl)]-phosphate] | – | – | 9.7 µM | 78 µM | 33 µM | – | – | –
COC(=O)C(C)(C)NP(=O)(OC[C@H]1O[C@@H](n2cc(/C=C/Br)c(=O)[nH]c2=O)CC1O)Oc1ccc(Cl)cc1 (stereo partly drawn) [Example 42, (E)-5-(2-bromovinyl)-2′-deoxyuridine-5′-[4-chlorophenyl-(methoxy-α,α-dimethylglycinyl)]-phosphate] | – | – | 183 µM | 8.7 µM | 442 µM | – | – | –
CCOC(=O)[C@H](C)NP(=O)(OC[C@H]1O[C@@H](n2cc(/C=C/Br)c(=O)[nH]c2=O)CC1O)Oc1ccc(F)cc1 (stereo partly drawn) [Example 6, (E)-5-(2-Bromovinyl)-2′-deoxyuridine-5′-[para-fluorophenyl-(ethoxy-L-alaninyl)]-phosphate] | – | – | 11 µM | 46 µM | 42 µM | – | – | –
CCOC(=O)[C@H](C)NP(=O)(OC[C@H]1O[C@@H](n2cc(/C=C/Br)c(=O)[nH]c2=O)CC1O)Oc1ccc([N+](=O)[O-])cc1 (stereo partly drawn) [Example 9, (E)-5-(2-Bromovinyl)-2′-deoxyuridine-5′-[para-nitrophenyl-(ethoxy-L-alaninyl)]-phosphate] | – | – | 119 µM | 177 µM | 365 µM | – | – | –
